What was measured:
CLL cells [1] = settings: in vitro treatment; Buchner 2009, Gobessi 2009; cited from earlier work
CD19+CD5+B-CLL cells = test: SCNP modulated signaling, Example 3 (B-CLL vs healthy B cells); type: cell-based, human; settings: CLL samples compared to healthy controls
Description: Peripheral blood mononuclear cells (PBMCs) were obtained from 39 B-CLL patients between 2006 and 2007, Rai stage 0-II, at different time points during their clinical course but prior to the initiation of treatment. PBMCs from four age-matched healthy donors were collected at the Stanford Blood Center. All donors provided informed consent for research purposes. SCNP assays were performed blinded to clinical data. Diagnosis and initiation of treatment for B-CLL were based on 1996 National Cancer Institute-Working Group (NCI-WG)/IWCLL 2008 Guidelines for Diagnosis and Treatment of CLL. The median age of CLL patients was slightly lower than the typical CLL population (58 years vs 65-70). Of the 39 samples evaluated, 15 expressed CD38 (≧30% of cells) and 20 expressed ZAP-70 (≧20% of cells); 19 were IGHV unmutated (98% cutoff); and the cytogenetic risk groups were evenly represented. IGHV mutational status and expression of CD38 and ZAP-70 were determined. […]
SCNP analysis quantitatively measured intracellular signaling proteins within CD19+CD5+B-CLL cells using a panel of disease-relevant modulators (FIG. 27, FIG. 35A, B). […]
Flow cytometry data were gated using WinList (Verity House Software, Topsham, Me.). […] The raw instrument fluorescence intensities were converted to calibrated intensity metrics (ERFs, Equivalent Number of Reference Fluorophores). […]

CD19+CD5+ CLL cells [2] = test: SCNP modulated signaling, Example 2 (10-15 min modulation); type: cell-based, human; settings: SDF1α 10 ng/mL
Description: Peripheral blood mononuclear cells (PBMCs) were obtained from 29 patients with CLL treated on a clinical trial at “La Sapienza” University of Rome between November 2008 and January 2010 at the time of but prior to the initiation of first treatment. All patients provided informed consent for research purposes. SCNP assays were performed blinded to clinical outcomes. Diagnosis and initiation of treatment for B-CLL were based on 1996 National Cancer Institute-Working Group ([…] 2008 Guidelines for Diagnosis and Treatment of CLL. Clinical and biological disease characteristics at diagnosis are summarized in FIG. 28 IGHV mutational status and expression of CD38 and ZAP-70 were determined. […] SCNP analysis was performed to quantitatively measure intracellular signaling proteins within CD19+CD5+ CLL cells using a panel of disease-relevant modulators. […] Cells were rested for 2 hours at 37° C. followed by modulation. Short duration modulation was performed for 10 minutes at 37° C. with the following modulators: 20 μg/mL polyclonal goat F(ab')2 anti-human IgM (Southern Biotech, Birmingham, Ala.), 5 μg/mL monoclonal anti-human IgD (BD Biosciences, San Jose, Calif.), 10 ng/mL of SDF1[…] (R&D Systems, Minneapolis, Minn.), and the combination of 20 μg/mL polyclonal goat F(ab')2 anti-human IgM and 10 ng/mL of SDF1[…]15 minute modulations were performed for the following: 0.5 μg/mL CD40L (R&D Systems, Minneapolis, Minn.), 50 ng/mL IL-[…] […] The raw instrument fluorescence intensities were converted to calibrated intensity metrics (ERFs, Equivalent Number of Reference Fluorophores). […] The term “signaling node” is used to refer to a proteomic readout in the presence or absence of a specific modulator. For example, the response to anti-IgM modulation can be measured using p-ERK as a readout. […] The term “metric” is used to refer to the quantification method used to evaluate the functional response of signaling proteins. […]

CD19+CD5+ CLL cells [3] = test: SCNP drug-induced signaling, Example 2 (4 and 24 hours); type: cell-based, human
Description: Peripheral blood mononuclear cells (PBMCs) were obtained from 29 patients with CLL treated on a clinical trial at “La Sapienza” University of Rome between November 2008 and January 2010 at the time of but prior to the initiation of first treatment. All patients provided informed consent for research purposes. SCNP assays were performed blinded to clinical outcomes. […] SCNP analysis was performed to quantitatively measure 18 intracellular signaling proteins within CD19+CD5+ CLL cells using a panel of 14 disease-relevant modulators (FIG. 27) as follows:
SCNP analysis was performed to quantitatively measure intracellular signaling proteins within CD19+CD5+ CLL cells using a panel of disease-relevant modulators. First, the cryopreserved PBMC samples were thawed at 37° C., stained for viability with Amine Aqua (Invitrogen, Carlsbad, Calif.), resuspended in RPMI with 10% FBS and aliquoted at 100,000 cells per well 96-deepwell plates. Cells were rested for 2 hours at 37° C. followed by modulation. Short duration modulation was performed for 10 minutes at 37° C. with the following modulators: 20 μg/mL polyclonal goat F(ab′)2 anti-human IgM (Southern Biotech, Birmingham, Ala.), 5 μg/mL monoclonal anti-human IgD (BD Biosciences, San Jose, Calif.), 10 ng/mL of SDF1□ (R&D Systems, Minneapolis, Minn.), and the combination of 20 μg/mL polyclonal goat F(ab′)2 anti-human IgM and 10 ng/mL of SDF1□□□15 minute modulations were performed for the following: 0.5 μg/mL CD40L (R&D Systems, Minneapolis, Minn.), 50 ng/mL IL-2 (R&D Systems, Minneapolis, Minn.), 50 ng/mL IL-4 (BD Biosciences, San Jose, Calif.), 50 ng/mL IL-21 (Peprotech, Rocky Hill, N.J.), 1000 IU/mL of IFN□ (PBL InterferonSource, Piscataway, N.J.), 5 μg/mL R848 (Invivogen, San Diego, Calif.), and 1 μM thapsigargin (EMD Millipore, Billerica, Mass.). […]

CLL cells [4] = settings: inhibition of AKT phosphorylation by the PI3K inhibitor; cited from earlier work
CLL B cells = test: SCNP phospho-flow: H2O2-modulated BCR signaling, CLL samples; type: cell-based, human; settings: after exposure to H2O2
Description: Cryopreserved PBMCs, 23 from CLL patients and 7 from healthy donors, were rapidly thawed in a 37° C. water bath. 1 mL of pre-warmed thawing media (PBS 1% FBS, 2 mM EDTA) was added dropwise to each of the cryovials. […] Supernatant was decanted, cell pellets were resuspended in 1 mL RPMI 1640 1% FCS and filtered over 70 um nylon mesh (BD Falcon) to remove cell clumps and debris. 11 mL of additional RPMI 1640 1% FCS was added to the samples to wash. A 20 uL aliquot was removed from each sample and placed into a solution of PBS 4% FCS CD45 Alexa Flour 700 and Propidium Iodide for viability and counting on a BDLSRII cytometer.
At the end of the 10 minute incubation […] 5.6% PFA (final 1.6%) was added to each well to fix the cells.
At the end of the 10 minute incubation 200 uL 5.6% PFA (final 1.6%) was added to each well to fix the cells.
Cells were permeabilized by adding 600 µL of ice cold 100% methanol to each well using the Costar 96-channel pipettor (Costar). […]
To test whether phenotypic characterization of CLL physiology could be discerned based on responses of cells to extracellular stimuli, modulated BCR intracellular signaling was determined either in response to anti-μ (ligand-dependent) or post H2O2 treatment to evaluate the contribution of tonic signaling (ligand-independent) to BCR output. […]

healthy B cells = test system: healthy B cells
Description: Cryopreserved PBMCs, 23 from CLL patients and 7 from healthy donors, were rapidly thawed in a 37° C. water bath. 1 mL of pre-warmed thawing media (PBS 1% FBS, 2 mM EDTA) was added dropwise to each of the cryovials. Thawed cells were transferred to a tube containing 8 mL thawing media. Tubes were inverted and centrifuged at 200×g for 8 minutes at room temperature. Supernatant was decanted, cell pellets were resuspended in 1 mL RPMI 1640 1% FCS and filtered over 70 um nylon mesh (BD Falcon) to remove cell clumps and debris. 11 mL of additional RPMI 1640 1% FCS was added to the samples to wash. A 20 uL aliquot was removed from each sample and placed into a solution of PBS 4% FCS CD45 Alexa Flour 700 and Propidium Iodide for viability and counting on a BDLSRII cytometer. The remaining volume of cell suspension was centrifuged at 200×g for 8 minutes at room temperature
For single agent modulators 150 μL of 10× solutions were arrayed into wells of a 96-well v-bottom plate (Nunc). Corresponding daughter plates were taken from the 37° C. incubator, and […] of RPMI1640 1% FCS was added to each well using the Liquidator 96-well pipettor. […] The daughter plates were pulse vortexed for 5 seconds and placed into a 37° C. water bath for 10 minutes.
Corresponding daughter plates were taken from the 37° C. incubator. […]
Antibody cocktails for signaling and apoptosis readouts were prepared in FACS Buffer. […]

[5] = 24 hours, samples with low spontaneous apoptosis

In the case of `COc1cc(Nc2ncc(F)c(Nc3ccc4c(n3)NC(=O)C(C)(C)O4)n2)cc(OC)c1OC` [R406], the “apoptotic response of CLL cells” value (CLL cells [1]) is given as “mediated an apoptotic response”.
With SDF1α the “SDF1α→p-AKT modulation as a single stimulus” value (CD19+CD5+B-CLL cells) was “weaker in nearly all CLL samples”, the SDF1α→p-AKT signal (CD19+CD5+ CLL cells [2]; 10 min, moderate signal) was no less than 0.25 log 2Fold and the SDF1α→p-ERK signal (CD19+CD5+ CLL cells [2]; 10 min, moderate signal) was no less than 0.25 log 2Fold. For the same molecule, the “p-ERK signal, median log 2Fold” value (CD19+CD5+ CLL cells [2]; 10 min modulation, αIgM 20 μg/mL) was 0.38 log 2Fold.
In the case of `Cn1c(CCCC(=O)O)nc2cc(N(CCCl)CCCl)ccc21` [bendamustine], the “induced p-53BP1 signaling, bendamustine versus fludarabine” value (CD19+CD5+ CLL cells [3]; [5]) is reported as “greater”, the “induced p-H2AX signaling, bendamustine versus fludarabine” value (CD19+CD5+ CLL cells [3]; [5]) is reported as “equivalent” and the “p21 induction in response to bendamustine” value (CD19+CD5+ CLL cells [3]; CLL samples with 17p deletion, 24 hour, additional cohort of 7 CLL samples) is reported as “impaired p21 induction”.
For `CC[C@H](Nc1ncnc2[nH]cnc12)c1nc2cccc(F)c2c(=O)n1-c1ccccc1` [CAL-101/GS-1101], the “CD40L protection from spontaneous apoptosis” value (CLL cells [4]) is listed as “blocked”.
With `OO` [H2O2, hydrogen peroxide] the “B cells with activated Syk and BLNK” value (CLL B cells; sample CLL007 (Group II)) was “approximately 2%”, the “B cells with activated Syk and BLNK” value (CLL B cells; sample CLL021 (Group II)) was 5-6% and the “anti-μ-mediated BCR signaling in presence of H2O2” value (healthy B cells; B cells from healthy donors) was “further potentiated”. The “response of all signaling molecules except Akt to H2O2 treatment alone” value (healthy B cells; healthy B cells) was “minimally responsive”.

From patent publication US20140093903A1, “METHODS FOR DIAGNOSIS, PROGNOSIS AND METHODS OF TREATMENT” (Nodality, Inc., priority 2012, published 2014)
